What was measured:
[1] = system: récepteurs surrénaliens de l'angiotensine Il; experiment: Displacement of [125I]-SIAII radioligand from adrenal angiotensin II receptors (rat adrenal homogenate); assay type: binding; conditions: 60 min at 25°C
Excerpt: L'affinité des produits des exemples pour les récepteurs de l'angiotensine Il est évaluée par technique de déplacement d'un radioligand spécifiquement fixé sur les récepteurs surrénaliens de l'angiotensine Il, chez le rat.
Une aliquote d'un homogénat de surrénales de rat incube en présence d'une concentration unique de [1251] - SIAII (Sar1, Tyr4, Ile8 - angiotensine il), antagoniste des récepteurs de l'angiotensine Il, et de deux concentrations d'agents compétiteurs (10^-5 M, 10^-7 M) durant 60 min à 25°C.
La réaction est achevée par ajout de tampon, puis rapide filtration à travers des filtres de papier de verre. La liaison non spécifique est déterminée en présence d'angiotensine II.
Les résultats sont exprimés, pour les concentrations testées, en pourcentage de déplacement du radioligand spécifiquement fixé sur les récepteurs surrénaliens de l'angiotensine il.

[2] = system: cellules musculaires lisses d'aortes de rat (CMLV); experiment: Inhibition of PDGF-induced cell proliferation (3H-thymidine incorporation) in rat aortic smooth muscle cells; assay type: cell-based; conditions: 1E - 4M; 1 h pretreatment, 22 h PDGF stimulation
Procedure: B. Mesure de l'inhibition de la prolifération cellulaire induite par les facteurs de croissance (exemple : le Platelet-Derived Growth Factor ou PDGF) dans les cellules musculaires lisses d'aortes de rat
L'inhibition de la prolifération cellulaire induite par un facteur de croissance (exemple : le PDGF) est évaluée par mesure de l'incorporation de 3H-thymidine dans les cellules musculaires lisses d'aortes de rat (CMLV).
Les CMLV sont cultivées à 37°C, en 5 % C02, jusqu'à la sous-confluence puis placées pendant 24 heures en quiescence dans un milieu pauvre en sérum. Elles sont ensuite prétraitées pendant une heure par la molécule à tester (10^-4M) puis stimulées pendant 22 heures par un facteur de croissance (exemple : le PDGF). L'incorporation de 3H-thymidine est effectuée pendant les 4 dernières heures. Toutes ces étapes sont effectuées à 37°C, en 5 % CO2. La réaction est terminée par aspiration du milieu réactionnel, détachement des cellules, puis filtration des cellules lysées à travers des filtres en fibres de verre.
Les résultats sont exprimés en pourcentage d'inhibition de la stimulation d'incorporation de 3H-thymidine due à l'action du facteur de croissance.

| Compound | % de déplacement du ligand marqué ([1]; competitor 1E-5M, 10 µM) | % de déplacement du ligand marqué ([1]; competitor 1E-7M, 0.1 µM) | % inhibition de l'incorporation de 3H-thymidine induite par le PDGF [2] |
| --- | --- | --- | --- |
| CCCc1c(Cc2ccc(-c3sccc3-c3nnn[nH]3)cc2)c(O)nc2ncnn12 [Exemple 79, 5-hydroxy-7-propyl-6-[4-[3-(1-H-tétrazol-5-yl)-2-thiényl]benzyl]-1,2,4-triazolo [1,5-a] pyrimidine] | 58% | 26% |  |
| CCCc1nc2nncn2c(O)c1Cc1ccc(-c2ccccc2-c2nnn[nH]2)cc1 [Exemple 65, 5-hydroxy-7-propyl-6-[(2'-(1-H-tétrazol-5-yl)biphényl-4-yl)méthyl]-1,2,4 triazolo [4,3-a] pyrimidine] | 63% | 47% |  |
| CCCCc1c(Cc2ccc(-c3ccccc3-c3nnn[nH]3)cc2)c(O)nc2nc(C)nn12 [Exemple 82, 7-butyl-5-hydroxy-2-méthyl-6-[(2'(1-H-tétrazol-5-yl)biphényl-4-yl)méthyl]-1,2,4-triazolo [1,5-a] pyrimidine] | 58% | 11% |  |
| CCCc1nc2ncnn2c(O)c1Cc1ccc(-c2ccccc2-c2nnn[nH]2)cc1 [Exemple 62, 7-hydroxy-5-propyl-6-[(2'-(1-H-tétrazol-5-yl)biphényl-4-yl)méthyl]-1,2,4-triazolo [1,5-a]pyrimidine] | 65% | 52% |  |
| 7-N,N-diethylamino-5-propyl-6-[(2'-(1-H-tétrazol-5-yl) biphényl-4-yl) méthyl]-1,2,4-triazolo [1,5-a] pyrimidine [Exemple 69] | 69% | 19% | 100% |
| CCCc1c(Cc2ccc(-c3ccccc3-c3nnn[nH]3)cc2)c(O)nc2nc(N)nn12 [Exemple 75, 2-amino-5-hydroxy-7-propyl-6-[(2'-(1-H-tétrazol-5-yl)biphényl-4-yl)méthyl]-1,2,4-triazolo [1,5-a] pyrimidine] | 61% | 60% |  |
| CCCc1c(Cc2ccc(-c3ccccc3-c3nnn[nH]3)cc2)c(N)nc2ncnn12 [Exemple 77, 5-amino-7-propyl-6-[(2'-(1-H-tétrazol-5-yl)biphényl-4-yl)méthyl]-1,2,4-triazolo [1,5-a] pyrimidine] | 63% | 31% |  |
| CCCc1nc2nc(CC)nn2c(O)c1Cc1ccc(-c2ccccc2-c2nnn[nH]2)cc1 [Exemple 68, 2-éthyl-7-hydroxy-5-propyl-6-[(2'-(1-H-tétrazol-5-yl)biphényl-4-yl)méthyl]-1,2,4-triazolo [1,5-a] pyrimidine] | 69% | 59% |  |
| CCCc1c(Cc2ccc(-c3ccccc3-c3nnn[nH]3)cc2)c(O)nc2ncnn12 [Exemple 63, 5-hydroxy-7-propyl-6-[(2'-(1-H-tétrazol-5-yl)biphényl-4-yl)méthyl]-1,2,4-triazolo [1,5-a] pyrimidine] | 61% | 52% |  |
| CCCc1c(Cc2ccc(-c3ccccc3-c3nnn[nH]3)cc2)c(N(CC)CC)nc2ncnn12 [Exemple 76, 5-N,N-diéthylamino-7-propyl-6-[(2'-(1-H-tétrazol-5-yl)biphényl-4-yl)méthyl]-1,2,4-triazolo [1,5-a] pyrimidine] | 63% | 28% |  |
